Experimental data taken from patent US11584744B2 (UNIVERSITY OF WASHINGTON, priority 2017, dated 2023).
Values after ≈ are worked out from the molar mass of the structure shown. Values joined by “and” are separate entries in the source; they are usually repeats but may differ in a detail not shown here. Equal entries are not always repeated. Where two headings read alike, the source gives them in different places.

Experiments:
[1] = tested on: E. faecium VRE (ATCC 51559); experiment: MIC susceptibility testing; assay type: cell-based, Enterococcus faecium; conditions: E. faecium ATCC 51559
Procedure, shortened: (§1)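 CLSI broth microdilution with two-fold compound dilutions, in triplicate; cells added in medium at 1×10^6 CFUs/mL, DMSO ≤0.5%. Media: MHB for S. aureus, CA-MHB for E. coli and E. faecium, CA-MHB plus 3% laked horse blood for S. pyogenes (5% CO2).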

MetRS (C. parvum) = MetRS (C. parvum) (Cryptosporidium parvum, UniProt Q5CVN0); experiment: MetRS (C. parvum) enzyme inhibition; assay type: biochemical; conditions: read-out: (C) MetRS (C. parvum) IC50
[2] = tested on: S. aureus MRSA (ATCC 33591); experiment: MIC susceptibility testing; assay type: cell-based, Staphylococcus aureus; conditions: MRSA ATCC33591; for MIC: Staphylococcus aureus, read-out: (G) MRSA (ATCC33591) MIC
Procedure, shortened: as §1

T. brucei = T. brucei growth inhibition; assay type: cell-based, Trypanosoma brucei; conditions: read-out: (D) T. brucei EC50
S. pyogenes (ATCC 19615) = experiment: MIC susceptibility testing; assay type: cell-based; conditions: Streptococcus pyogenes, ATCC19615, S. pyogenes ATCC 19615; read-out: (H) S. pyogenes (ATCC 19615) MIC
From the text: Media and culture conditions. Mueller Hinton broth (MHB), cation adjusted Mueller Hinton broth (CA-MHB), and Brain Heart Infusion broth (BHI) were purchased from Becton Dickinson (Franklin Lakes, N.J.). Tryptic soy agar (TSA) plates, TSA with 5% sheep blood plates, and CA-MHB with 3% laked horse blood were purchased from Remel (San Diego, Calif.). MHB was used to assay all Staphylococcus aureus strains. CA-MHB was used for Staphylococcus epidermidis, Enterococcus faecalis, Enterococcus faecium, Escherichia coli, and Pseudomonas aeruginosa. CA-MHB supplemented with 3% laked horse blood was used for Streptococcus pneumoniae and Streptococcus pyogenes. Staphylococcus, Enterococcus, Escherichia, and Pseudomonas strains were cultured at 37° C. with ambient air. Streptococcus strains were cultured in 37° C. with 5% CO2. Separate conditions for radiolabeled precursor uptake assays are described below.
Susceptibility testing: Minimum inhibitory concentration (MIC) determinations were performed in triplicate in 96-well round bottom microtiter plates (Corning, Corning N.Y.) as described by the Clinical and Laboratory Standards Institute (CLSI). Serial two-fold dilutions of compounds were added to plates in 50 μL volumes. An additional 50 μL of media containing bacterial cells (1×10^6 CFUs/mL) was then added to each well. Maximum DMSO concentrations were 0.5%. Plates were incubated at 37° C. for at least 18 h before reading the susceptibility result by optical absorbance (OD600) using a BioTek ELx800. The lowest concentration causing ≥90% growth inhibition compared to the untreated control was recorded as the MIC (and also corresponded to the visual MIC). MICs were measured at least twice and the higher value (if different) was recorded herein.

C. parvum = C. parvum growth inhibition; assay type: cell-based, Cryptosporidium parvum; conditions: read-out: (J) C. parvum EC50
T. cruzi = T. cruzi growth inhibition; assay type: cell-based, Trypanosoma cruzi; conditions: read-out: (E) T. cruzi EC50
[3] = tested on: S. aureus MSSA (ATCC 29213); experiment: MIC susceptibility testing; assay type: cell-based, Staphylococcus aureus; conditions: S. aureus ATCC 29213; for MIC: Staphylococcus aureus, read-out: (F) S. aureus (ATCC 29213) MIC
[4] = tested on: G. lamblia (ATCC GL50803); experiment: G. lamblia growth inhibition; assay type: cell-based; conditions: Giardia duodenalis, read-out: (K) G. lamblia (ATCC GL50803) EC50

Sequence of MetRS (C. parvum) (Q5CVN0 entry or part of it): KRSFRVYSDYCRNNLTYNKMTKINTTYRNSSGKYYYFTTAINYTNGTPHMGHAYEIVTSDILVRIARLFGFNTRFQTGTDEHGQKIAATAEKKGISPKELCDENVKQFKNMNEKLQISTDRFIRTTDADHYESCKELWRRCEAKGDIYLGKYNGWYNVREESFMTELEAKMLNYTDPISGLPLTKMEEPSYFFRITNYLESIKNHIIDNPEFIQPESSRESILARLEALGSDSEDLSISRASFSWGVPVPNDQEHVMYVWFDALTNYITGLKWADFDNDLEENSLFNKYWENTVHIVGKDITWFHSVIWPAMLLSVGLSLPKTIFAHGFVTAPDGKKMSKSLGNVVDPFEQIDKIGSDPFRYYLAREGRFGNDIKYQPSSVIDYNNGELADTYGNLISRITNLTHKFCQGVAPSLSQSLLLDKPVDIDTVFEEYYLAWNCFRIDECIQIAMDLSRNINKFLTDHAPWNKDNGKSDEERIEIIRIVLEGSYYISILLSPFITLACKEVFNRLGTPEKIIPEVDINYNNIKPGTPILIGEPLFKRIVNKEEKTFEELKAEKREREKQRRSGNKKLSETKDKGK

Row | SMILES | (I) E. faecium (ATCC 51559) MIC [1] | MIC ([1]; Enterococcus faecium, read-out: (I) E. faecium (ATCC 51559) MIC) | IC50 (MetRS (C. parvum)) | (G) MRSA (ATCC33591) MIC [2] | MIC [2] | EC50 (T. brucei; Trypanosoma brucei) | EC50 (T. brucei) | MIC (S. pyogenes (ATCC 19615)) | EC50 (C. parvum; Cryptosporidium parvum) | EC50 (C. parvum) | EC50 (T. cruzi; Trypanosoma cruzi) | EC50 (T. cruzi) | (F) S. aureus (ATCC 29213) MIC [3] | MIC [3] | EC50 [4]
1 | COc1cc(Cl)c(Cc2cn(Cc3nc4ccc(Cl)nc4[nH]3)c([S+](C)[O-])n2)cc1OC (centres unmarked) [Compound 2241, 1-({5-chloro-1H-imidazo[4,5-b]pyridin-2-yl}methyl)-4-[(2-chloro-4,5-dimethoxyphenyl)methyl]-2-methanesulfinyl-1H-imidazole] | 0.0206, μg/ml and 0.0160, μg/ml and 0.0189 μg/ml | 0.0277 µg/mL (≈ 0.0577 µM) | < 40 nM | 0.113 µg/mL | 0.104 µg/mL (≈ 0.216 µM) | 2.12 nM | 1.52 nM and 1.8 nM and 1.71 nM | 0.847 µg/mL (≈ 1.76 µM) | 1600 nM | > 2000 nM |  |  |  |  | 
2 | COc1ccc(-c2nccn3c(=O)n(Cc4nc5nc(Cl)ccc5[nH]4)cc23)c(Cl)c1 [Compound 2249, 2-({5-chloro-1H-imidazo[4,5-b]pyridin-2-yl}methyl)-8-(2-chloro-4-methoxyphenyl)-2H,3H-imidazo[1,5-a]pyrazin-3-one] |  |  | 122 nM |  |  | 30.9 nM | 31.6 nM |  | 1070 nM | 1200 nM and 1140 nM and > 2000 nM | 76.4 nM | 114 nM | 3.33, μg/ml and 3.16 μg/ml | > 2 µg/mL | 1200 nM
3 | CCNC(=O)n1c(Cc2ccc(Cl)cc2Cl)cn(Cc2nc3nc(Cl)ccc3[nH]2)c1=O [Compound 2288, 3-({5-chloro-1H-imidazo[4,5-b]pyridin-2-yl}methyl)-5-[(2,4-dichlorophenyl)methyl]—N-ethyl-2-oxo-2,3-dihydro-1H-imidazole-1-carboxamide] |  |  |  |  | > 2 µg/mL | 1.79 nM |  | > 2 µg/mL |  |  | 183 nM |  |  | 1.16 µg/mL (≈ 2.42 µM) | 
4 | CCn1c(C(=O)c2ccc(OC)cc2Cl)cn(Cc2nc3ccc(Cl)nc3[nH]2)c1=O [Compound 2296, 1-({5-chloro-1H-imidazo[4,5-b]pyridin-2-yl}methyl)-4-(2-chloro-4-methoxybenzoyl)-3-ethyl-2,3-dihydro-1H-imidazol-2-one] |  |  |  |  |  | < 0.91 nM | 0.78 nM | 0.455 µg/mL (≈ 1.02 µM) | 62 nM |  | 5.26 nM | 7.44 nM |  | 0.21 µg/mL (≈ 0.471 µM) | 
5 | CCn1c(C(O)c2ccc(OC)cc2Cl)cn(Cc2nc3ccc(Cl)nc3[nH]2)c1=O (centres unmarked) [Compound 2297, 1-({5-chloro-1H-imidazo[4,5-b]pyridin-2-yl}methyl)-4-[(2-chloro-4-methoxyphenyl)(hydroxy)methyl]-3-ethyl-2,3-dihydro-1H-imidazol-2-one] |  |  |  |  |  | 7.12 nM |  | > 8 µg/mL | 203 nM |  | 53.8 nM | 79.7 nM |  | 2.98 µg/mL (≈ 6.65 µM) | 
